{
  "source": "patent US11306361B2",
  "about": "“Pathology prognosis method” (CENTRE NATIONAL DE LA RECHERCHE SCIENTIFIQUE, priority 2015, dated 2022)",
  "key": {"[1]": {"tested_on": "MEFs transformed with the mouse T antigen", "experiment": "Apoptosis and PARP cleavage in cell lines immortalized by the T antigen", "assay_type": "cell-based", "details": "FIG. 15; for induced apoptosis as a function of Cyclin D1 level: T antigen immortalized cells, wild vs Ntag/Ntag vs −/−; for cleavage of the PARP: cells with low Cyclin D1 level", "text": "(§1) The antibodies used are the following: anti-HA (HA.11 Clone 16B12, Eurogentec or Anti-HA EPITOPE TAG-600-401-384, Tebu-bio or Hemagglutinin (HA) Rabbit Polyclonal Antibody, Life Technologies), anti-Cyclin D1 (sc-450, Santa Cruz or MS-210-PABX (AB1), Fisher Scientific or RB-010-PABX (AB3), Fisher scientific), anti-RB total (sc-74562, Santa Cruz), anti-Phospho-RB (Ser780) (9307, Cell signaling), anti-Actin (ab6276, Abcam), anti-Tubulin (T9026, Sigma-Aldrich), anti-Ras (BD610002, BD Biosciences), anti-FLAG (F7425, Sigma-Aldrich), anti-cleaved PARP (ab32064, Abcam), anti-VASA (ab13840, Abcam), anti-Thyrosine Hydroxylase (MAB318, Merck Millipore). The secondary antibodies used are coupled with peroxidase (signaling), and the detection of the complexes is done using the enhanced chemiluminescence detection kit (Millipore).\n(§2) Cell death is induced by exposure to actinomycin D A9415, Sigma, for 6 h, 5-Fluoro uracil (Fluorouracil Winthrop, Sanofi-Aventis) for 24 h, or ethanol (20821.330, VWR) for 6 h and inhibited by exposure to Q-VD-Oph (SML0063, Sigma).\n(§3) The cells are washed twice in PBS 1×, unstuck with trypsin and reacted in a marking buffer (10 mM of Hepes pH=7.4, sodium chloride 150 mM, KCl 5 mM, MgCl2 1 mM, CaCl2 1.8 mM). Then the cells were marked with […]-fluorescein isothiocyanate (BD Biosciences) according to the manufacturer's instructions in 0.5 μg/mL of propidium iodide (PI; Sigma-Aldrich P-4170). After 15 min. of incubation in the dark, the cells are analyzed by flux cytometry. The living cells are Annexin V and PI double negatives and the apoptotic cells are positive for Annexin V and negative for PI."}, "[2]": {"tested_on": "MEF cells transformed with RAS-G12V/DNP53 and MMTV-ErbB2 tumor cells", "experiment": "Measurement of cell death (apoptosis) in transformed tumor cells", "assay_type": "cell-based, mouse", "details": "for apoptosis rates versus quantity of Cyclin D1: MEFs transformed with P53 negative dominant and RAS G12V, null, low or high Cyclin D1, FIG. 23", "experimental": "as §2, §3"}, "[3]": {"tested_on": "RAS or ErbB2 cancer cells", "experiment": "Western blot of cleaved PARP in tumor cells", "assay_type": "cell-based, mouse", "details": "after treatment with 5-FU; limited by Cyclin D1; FIG. 27", "text": "as §1"}, "male germinal cells": {"tested_on": "male germinal cells", "experiment": "Methoxyacetic acid treatment, mouse testicles", "assay_type": "in vivo", "experimental": "The mice were sacrificed 14 hours after treatment, for the postmortem analyses.\nas §1"}, "dopaminergic neurons": {"tested_on": "dopaminergic neurons", "experiment": "6-OHDA lesions, survival of mice", "assay_type": "in vivo, mouse", "details": "FIG. 9", "experimental": "The mice were anesthetized with a mixture of ketamine (Imalgene 500, 50 mg/mL, Merial), 0.9% saline solution (weight/vol) and xylazine (Rompun 2%, […], Bayer) (2:2:1, i.p., 0.1 mL/30 g) and mounted on a stereotaxic apparatus. The 6-OHDA-HCl (Sigma) was dissolved in 0.02% ascorbic acid in a saline solution at a concentration of 3 μg of 6-OHDA/μL. Each mouse received two unilateral injections of 6-OHDA (2 μL/injection) in the right dorsal striatum, according to the following coordinates (in mm): anteroposterior +1, mediolateral −2.1, dorsal ventral −3.1 and anteroposterior +0.3, mediolateral −2.3, and dorsal ventral −3.1. The animals are then released and received a daily injection of glucose solution (50 mg/mL, subcutaneous)."}, "substantia nigra": {"tested_on": "substantia nigra", "experiment": "Methamphetamine model of dopaminergic neurons in mice", "experimental": "The methamphetamine was dissolved in a saline solution at 0.9% (weight/volume) sodium chloride, and injected at a rate of 10 mL/Kg. Several doses of methamphetamine (3 doses of 5 mg/kg at 3 h intervals) were injected intraperitoneally, the first dose being injected at noon. The control mice were treated with the saline solution alone. The mice were sacrificed 24 hours after treatment, for the postmortem analyses.\nThe mouse organs were washed with PBS 1× at 37° C. and lysed in HTRF buffer (Tris 10 mM, EDTA 1 mM, 0.05% NP-40) using a cell homogenizer. After centrifugation at 16000 g for 5 min., the samples were normalized by adjusting the total quantity of DNA (nanodrop, Thermo Scientific) at 500 ng/mL."}, "[4]": {"details": "mice expressing N-terminal tagged Cyclin D1 relative to wild mice, intraperitoneal injection"}},
  "note": "Numbered stars: 1 amine (or outer) side, 2 acyl side, 3 side chain; on linkers, the order of the positions; unused ones are H or OH. Bridge positions count the residues as written; N and C are the ends. Square brackets hold non-standard residues; d marks the D form. Peptide text beside a SMILES is read from it. I, II: the chains in the order shown. Actinocin(9to1) = Cc1c2oc3c(C)ccc(C(=O)[*:1])c3nc-2c(C(=O)[*:2])c(N)c1=O; NMeV = CN[C@H](C(=O)O)C(C)C; Sar = CNCC(=O)O",
  "data": [
    {"smiles": "CCO", "note": "[ethanol]", "values": [
      {"measurement": "induced apoptosis as a function of Cyclin D1 level", "setting": "[1]", "result": "increases with a low Cyclin D1 level"},
      {"measurement": "cleavage of the PARP", "setting": "[1]", "result": "strong cleavage of the PARP"}
    ]},
    {"smiles": "O=c1[nH]cc(F)c(=O)[nH]1", "note": "[5-FU, 5-fluorouracil]", "values": [
      {"measurement": "apoptosis rates versus quantity of Cyclin D1", "setting": "[2]", "result": "the quantity of Cyclin D1 correlates with the decrease in the apoptosis rates"},
      {"measurement": "levels of cleaved PARP", "setting": "[3]", "result": "increase"}
    ]},
    {"smiles": "COCC(=O)O", "note": "[MAA, methoxyacetic acid]", "values": [
      {"measurement": "Cyclin D1 in testicles (HTRF)", "setting": "male germinal cells; 14 hours after intraperitoneal injection at 150 mg/kg, FIG. 13", "result": "decrease"},
      {"measurement": "cleaved PARP rate in testicles", "setting": "male germinal cells; [4]", "result": "increase"},
      {"measurement": "germinal cell marker (Vasa) in testicles", "setting": "male germinal cells; [4]", "result": "massive loss"}
    ]},
    {"smiles": "Cc1c2oc3c(C)ccc(C(=O)N[C@@H]4C(=O)N[C@H](C(C)C)C(=O)N5CCC[C@H]5C(=O)N(C)CC(=O)N(C)[C@@H](C(C)C)C(=O)O[C@@H]4C)c3nc-2c(C(=O)N[C@@H]2C(=O)N[C@H](C(C)C)C(=O)N3CCC[C@H]3C(=O)N(C)CC(=O)N(C)[C@@H](C(C)C)C(=O)O[C@@H]2C)c(N)c1=O", "note": "[actinomycin D] (I: T[dV]P[Sar][NMeV] / II: T[dV]P[Sar][NMeV]; ester I:1-I:C, II:1-II:C; linker I:N-II:N via Actinocin(9to1))", "values": [
      {"measurement": "apoptosis rates versus quantity of Cyclin D1", "setting": "[2]", "result": "the quantity of Cyclin D1 correlates with the decrease in the apoptosis rates"},
      {"measurement": "induced apoptosis as a function of Cyclin D1 level", "setting": "[1]", "result": "increases with a low Cyclin D1 level"},
      {"measurement": "cleavage of the PARP", "setting": "[1]", "result": "strong cleavage of the PARP"}
    ]},
    {"smiles": "CC(C)[C@H](NC(=O)c1ccc2ccccc2n1)C(=O)N[C@@H](CC(=O)O)C(=O)COc1c(F)cccc1F", "note": "[Q-VD-Oph]", "values": [
      {"measurement": "apoptosis induced by 5-FU or ethanol", "setting": "[2]; RAS and ErbB2 lines, Q-VD-Oph 20 μM, FIGS. 24 and 25", "result": "shunts the apoptosis"}
    ]},
    {"smiles": "NCCc1cc(O)c(O)cc1O", "note": "[6-OHDA, 6-hydroxy dopamine]", "values": [
      {"measurement": "survival of wild mice", "setting": "dopaminergic neurons; CCND1+/+ mice, intrastriatal injection", "result": "survive treatment"},
      {"measurement": "survival of mice expressing N-terminal tagged Cyclin D1", "setting": "dopaminergic neurons; mice expressing little Cyclin D1, intrastriatal injection", "result": "die several days after"}
    ]},
    {"smiles": "CN[C@@H](C)Cc1ccccc1", "note": "[methamphetamine]", "values": [
      {"measurement": "quantity of Cyclin D1 in the substantia nigra (HTRF)", "setting": "substantia nigra; CCND1Ntag/Ntag mice, 24 hours after intraperitoneal injection, FIG. 8", "result": "decreases"},
      {"measurement": "cerebral lesions", "setting": "substantia nigra; animals expressing little Cyclin D1, intraperitoneal 5 mg/kg", "result": "increase in cerebral lesions"}
    ]}
  ]
}
